In patent US8338455B2, “Compounds and methods of use” (Amgen Inc., priority 2006, dated 2012) one finds Ki data, which are given here for ten molecules.

pKi: −log10 of the molar value.

The target in the test is KDR (Homo sapiens, UniProt P35968). Description: KDR kinase inhibition (Ki). It is filed as biochemical.
KDR, sequence (P35968 20-1356, species assumed): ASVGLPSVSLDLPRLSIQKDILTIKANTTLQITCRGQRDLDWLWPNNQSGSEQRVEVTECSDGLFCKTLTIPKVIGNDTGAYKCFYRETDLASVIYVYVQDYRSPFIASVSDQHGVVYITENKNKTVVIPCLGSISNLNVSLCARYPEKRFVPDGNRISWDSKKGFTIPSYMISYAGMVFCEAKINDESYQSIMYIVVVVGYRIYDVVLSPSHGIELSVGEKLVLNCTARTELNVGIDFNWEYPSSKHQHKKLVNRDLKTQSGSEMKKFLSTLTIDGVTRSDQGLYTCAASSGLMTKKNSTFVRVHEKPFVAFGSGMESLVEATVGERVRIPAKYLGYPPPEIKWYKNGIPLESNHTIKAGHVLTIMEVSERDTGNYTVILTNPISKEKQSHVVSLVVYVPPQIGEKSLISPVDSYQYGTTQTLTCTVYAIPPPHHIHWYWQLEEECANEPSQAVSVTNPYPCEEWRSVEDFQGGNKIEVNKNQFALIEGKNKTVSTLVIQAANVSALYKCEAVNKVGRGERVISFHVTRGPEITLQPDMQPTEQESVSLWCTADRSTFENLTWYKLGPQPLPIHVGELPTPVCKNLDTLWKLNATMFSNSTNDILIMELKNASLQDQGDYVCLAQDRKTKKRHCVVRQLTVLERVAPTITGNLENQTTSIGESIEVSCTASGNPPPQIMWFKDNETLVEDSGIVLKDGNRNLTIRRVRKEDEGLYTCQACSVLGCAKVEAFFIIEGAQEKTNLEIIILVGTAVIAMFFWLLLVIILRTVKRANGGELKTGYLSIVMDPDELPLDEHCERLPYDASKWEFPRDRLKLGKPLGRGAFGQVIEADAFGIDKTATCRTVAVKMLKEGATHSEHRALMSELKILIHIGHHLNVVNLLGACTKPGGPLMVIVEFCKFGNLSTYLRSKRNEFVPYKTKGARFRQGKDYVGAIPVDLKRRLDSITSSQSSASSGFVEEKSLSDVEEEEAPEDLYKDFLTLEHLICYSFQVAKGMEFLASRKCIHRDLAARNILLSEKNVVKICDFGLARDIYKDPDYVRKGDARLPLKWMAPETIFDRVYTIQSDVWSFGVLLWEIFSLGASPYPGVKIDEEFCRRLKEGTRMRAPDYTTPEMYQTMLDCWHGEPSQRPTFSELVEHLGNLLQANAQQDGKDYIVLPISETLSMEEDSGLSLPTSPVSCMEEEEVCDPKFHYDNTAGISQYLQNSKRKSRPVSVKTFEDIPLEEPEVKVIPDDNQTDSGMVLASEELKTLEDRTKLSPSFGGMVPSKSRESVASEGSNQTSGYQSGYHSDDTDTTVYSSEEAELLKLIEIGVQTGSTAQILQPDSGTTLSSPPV
The molecule `CC(C)(C)c1ccc(NC(=O)c2cccc3c2CCN(Cc2ccncc2)C3)cc1` [Example 1A] showed a pKi of 6.48.

`CC(C)(C)c1ccc(NC(=O)c2cccc3c2CCN(Cc2ccnc4ccccc24)C3=O)cc1` [Example 7A]: the pKi was 7.95.

On to `Cc1cccc(NC(=O)c2cccc3c2CCN(Cc2ccnc4ccccc24)C3)c1` [Example 3A], for which the pKi is 6.98. Against the preceding molecule, the pKi is 0.97 log units lower.

`COc1cc2nccc(CN3CCc4c(C(=O)Nc5ccc(Cl)c(C(F)(F)F)c5)cccc4C3=O)c2cc1OC` [Example 10A] gave a pKi of 8.80.

In turn, `COc1cc2nccc(Cn3ccc4cc(Cl)ccc4c3=O)c2cc1OC` [Example 11, 6-chloro-2-((6,7-dimethoxyquinolin-4-yl)methyl)isoquinolin-1(2H)-one] gave a negative-log Ki (pKi) of 6.28.

In the case of `O=C(Nc1ccc(Cl)cc1)c1cccc2c1CCN(Cc1ccncc1)C2` [Example 1, N-(4-chlorophenyl)-2-(pyridin-4-ylmethyl)-1,2,3,4-tetrahydroisoquinoline-5-carboxamide], the negative-log Ki (pKi) is 5.52.

Molecule `CC(C)c1ccc(NC(=O)Nc2cccc3c2CCN(Cc2ccnc4ccccc24)C3)cc1` [Example 5A] showed a negative logarithm of the Ki (pKi) of 7.14.

The molecule `CC(=O)N1CC(C)(C)c2ccc(NC(=O)c3cccc4c3CCN(Cc3ccnc5ccccc35)C4)cc21` [Example 3H] gave a pKi of 8.27.

`COc1cc(NC(=O)c2cccc3c2CCN(Cc2ccnc4ccccc24)C3)cc(OC)c1` [Example 3C] showed a pKi of 7.37.

Regarding `O=C(Nc1ccc(Cl)cc1)Nc1cccc2c1CCN(Cc1ccnc3ccccc13)C2` [Example 5C], the negative logarithm of the Ki (pKi) was 7.15.
